We go through two compounds from patent publication US9089565B2, “Compositions and methods for causing neurite outgrowth” (MEDICAL RESEARCH COUNCIL, priority 2009, dated 2015).

The subject of assay [1] is Entorhinal-hippocampal slices. In words: Regeneration of entorhinal-hippocampal projection in lesioned organotypic slice culture (Dil tracing). Format: cell-based, mice. As to conditions: slices treated with either PKA or ATP alone, 8 days. As for the experimental part:
(A) Organotypic culture of Entorhinal-hippocampal slices was prepared from 129X1/SvJJmsSlc (albino) mice postnatal day 5 and 6. Culture media were changed every 2 days. […], On the day in vitro (DIV) 10, the entorhinal-hippocampal projection was transected with sterile scalpel brade. The lesioned slices were cultured for 8 days with or without 1250 U/ml PKA and 100 μM ATP. On the DIV17, a small aliquot of Dil paste (Invitrogen) was applied on the entorhinal side of the transection. […] Location of lesion made at DIV 10 is indicated as a white dot line. (B) Intensity of Dil signal near the dentate gyrus was measured with ImageJ (version 1.42q, National institute of health, USA). Measured area (100 μm square) was indicated in (A) as a open white square. Intensity was indicated as a percentage of Dil signal in control (not lesioned). Experiment was repeated for 5 time in triplicate. Typical images are indicated in (A), and average of the 5 independent experiments was plotted in (B). A student t-test was used to assess statistical significance.
In FIG. 10, entorhinal-hippocampal slices from mice postnatal day 5 or 6 were transected on day in vitro (DIV) 10, and they were incubated with or without PKA and ATP for 8 days. […]

For another assay, the target named is T1, NgR1 (Homo sapiens, UniProt Q9BZR6, S281A).
T1 construct: The cDNAs of NgR1 (NM 023004, Nt. 184-1543); expressed in transfected cells; host or cells: COS7
T1 sequence (Q9BZR6 27-447 S281A): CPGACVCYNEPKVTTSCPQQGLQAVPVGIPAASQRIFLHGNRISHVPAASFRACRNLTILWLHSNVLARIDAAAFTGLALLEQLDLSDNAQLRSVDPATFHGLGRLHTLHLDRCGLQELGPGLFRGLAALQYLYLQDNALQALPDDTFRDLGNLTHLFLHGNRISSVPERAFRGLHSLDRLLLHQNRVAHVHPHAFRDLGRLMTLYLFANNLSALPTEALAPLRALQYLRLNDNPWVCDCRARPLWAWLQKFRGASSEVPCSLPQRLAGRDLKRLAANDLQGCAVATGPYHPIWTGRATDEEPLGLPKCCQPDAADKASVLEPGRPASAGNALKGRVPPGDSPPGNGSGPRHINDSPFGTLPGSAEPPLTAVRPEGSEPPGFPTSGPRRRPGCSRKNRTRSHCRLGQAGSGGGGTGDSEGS
The experiment in a line: Binding of Nogo-66 fragment (Nogo-GFP) to COS7 cells over-expressing NgR1. As to conditions: 281S/A mutant NgR1; pre-treatment 30 min (CK2 with ATP, or NEP1-40). The method, then:
FIG. 3. CK2 phosphorylates NgR1, and inhibits binding of the myelin-associated proteins to NgR1. (A) Myc-tagged wild type, 281S/A or 281S/D mutant NgR1 were over-expressed in COS7 cells. The over-expressed cells were incubated with either the combination of ATP and CK2, or NEP1-40 for 30 min at 37° C. After washing with PBS, cells were incubated with Hisx6-tagged Nogo-GFP for 3 hours at 4° C. The cells were fixed and immunofluorescence was performed with anti-Myc and anti-GFP antibodies. (B) COS7 cells over-expressing Myc-tagged wild type NgR1 were treated as described in (A). Proteins were extracted and the Myc-tagged NgR1 was immunoprecipitated with anti-Myc antibody. Co-precipitated Hisx6-tagged Nogo-GFP was detected by anti-GFP antibody. (C) Cell surface proteins in NgR1-overexpressing COS7 cells were labelled with biotin. The biotinylated proteins were fractionated and analysed by SDS-PAGE. Biotinylated NgR1-Myc was detected with anti-Myc. antibody. (D) COS7 cells over-expressing either wild type NgR1-Myc or 281S/A mutant NgR1-Myc were incubated with ã-^32P-ATP in the presence or absence of CK2. Myc-tagged proteins were immunoprecipitated and analysed with SDS-PAGE. Proteins were blotted onto a PVDF membrane and the membrane was exposed to X-ray film to detect incorporated ^32P. After autoradiography, the membrane was used for immunoblotting with anti-Myc antibody. (E and F) COS7 cells over-expressing Myc-tagged wild type, 281S/A or 281S/D mutant NgR1, were treated as described in (A). After washing with PBS, cells were incubated with either His-tagged OMgp (E) or HA-tagged MAG (F) for 3 hours at 4° C. […]
After treatment with or without CK2, COS7 cells over-expressing wild type or mutant NgR were incubated with Hisx6 tagged Nogo-GFP (10 μg/ml), HA-MAG (50 μg/ml) or Hisx6 tagged OMgp (10 μg/ml) in PBS for 3 hours at 4° C. […] Biotinylated proteins were precipitated with streptavidin beads and were analysed by SDS-PAGE. Each sample fractionated from 5×10^6 cells was analysed by SDS-PAGE. […]

For the compound `Nc1ncnc2c1ncn2[C@@H]1O[C@H](COP(=O)(O)OP(=O)(O)OP(=O)(O)O)[C@@H](O)[C@H]1O` [ATP], the “location of Dil” value in assay [1] was “location of Dil was limited in the entorhinal side of the transection”. As for “NEP1-40: a competitive inhibitor of Nogo-66 binding to NgR1 (MEDLDQSPLVSSSDSPPRPQPAFKYQFVREPEDEEEEEEE; Nogo-66 residues 1-40; UniProt Q9NQC3 1-40, looked up, fragment) [reference compound]”, the “binding of the Nogo-66 fragment, immunofluorescence” value with NgR1 is reported as “inhibited binding”.
